Drawing on patent US11965039B2, “Compstatin analogues and their medical uses” (priority 2018, dated 2024), this text covers IC50 for 13 compounds.

Starred links: 1 amine or outer side, 2 acyl side, 3 side chain; linkers in the order of their positions; H or OH if unused. Positions of bridges follow the written chain, without caps; N, C: chain ends. Non-standard residues stand in square brackets, D forms with d. Residues, ends and D or L forms follow the SMILES beside them. Groups on a side chain read outwards from the residue. *: point of attachment. C20 diacid = O=C(O)CCCCCCCCCCCCCCCCCCC(=O)*; Trp(1-Me) = Cn1cc(C[C@H](N)C(=O)O)c2ccccc21; C18 diacid = O=C(O)CCCCCCCCCCCCCCCCC(=O)*; γGlu = O=C(O)[C@H](CCC(=O)[*:2])N[*:1]; 2Nal = N[C@@H](Cc1ccc2ccccc2c1)C(=O)O; AEEA = NCCOCCOCC(=O)O; Sar = CNCC(=O)O

The first assay has as its system classical complement pathway. Description: In vitro haemolysis assay (inhibition of classical complement pathway). The format is cell-based, human. The following applies: human serum, sensitized sheep red blood cells; Table 3, given as upper bounds; read-out: IC50, inhibition of hemolysis. The protocol:
The in vitro effect of the compounds of the present invention was assessed by measuring their inhibitory effect of the classical complement pathway in a haemolysis assay. Briefly, compounds of the present invention and reference compounds were dissolved in DMSO and diluted in Tris/Casein Assay Buffer (10 mM Tris, 145 mM NaCl, 0.5 mM MgCl2, 0.15 mM CaCl2), and 0.1% W/V Casein, adjusted to pH 7.4) as 9-point serial dilutions in a 96 well plate. Sensitized sheep red blood cells (RBC) coated with rabbit anti-sheep erythrocyte antiserum (Complement Technology, Inc., TX, USA) were washed in Tris/Casein Assay Buffer. […] from each well of diluted compound was added to a 96-well plate containing 50 μL diluted human serum (Complement Technology, Inc., TX, USA) and incubated for 15 minutes at room temperature. The serum dilution factor was optimized for every serum batch to obtain 70-90% of maximal haemolysis using the protocol. Then 50 μL sensitized sheep red blood cells were added to all wells (10^7 per well). After 30 minutes of incubation at 37 QC with gentle agitation, the reaction was stopped by addition of 50 μL Tris STOP Buffer per well (10 mM EDTA, 10 mM Tris, 145 mM NaCl adjusted to pH 7.4). The RBCs were then removed by centrifugation and the resulting supernatant measured for hemolysis by absorbance at 405 nm. The response was normalized relative to a positive and negative control (vehicle) to calculate the IC50 from the concentration response curve using the 4-parameter logistic (4PL) nonlinear model for curve fitting.
Turning to `CC[C@H](C)[C@@H]1NC(=O)[C@@H](NC(=O)[C@H](Cc2ccccc2)NC(C)=O)CSSC[C@@H](C(=O)N[C@H](C(=O)NCC(=O)N[C@@H](C)C(=O)N[C@@H](CCC(=O)O)C(=O)N[C@@H](CO)C(N)=O)[C@@H](C)O)NC(=O)[C@H](CCCNC(=N)N)NC(=O)[C@H](Cc2c[nH]cn2)NC(=O)[C@H](CCC(=O)O)NC(=O)CNC(=O)[C@H](Cc2c[nH]c3ccccc23)NC(=O)[C@H](CC(=O)O)NC(=O)[C@H](CCC(N)=O)NC(=O)[C@H](Cc2ccc3ccccc3c2)NC1=O` [Compound 64] (Ac-FCI[2Nal]QDWGEHRCTGAES-NH2; disulfide 2-12), the IC50 – broadly, the concentration that inhibits the measured activity by half – was less than 100 nM.

Consider `CC[C@H](C)[C@@H]1NC(=O)[C@@H](NC(=O)CN(C)C(C)=O)CSSC[C@@H](C(=O)N[C@H](C(N)=O)[C@@H](C)O)NC(=O)[C@H](CCCNC(=N)N)NC(=O)[C@H](Cc2c[nH]cn2)NC(=O)[C@H](CCC(=O)O)NC(=O)CNC(=O)[C@H](Cc2c[nH]c3ccccc23)NC(=O)[C@H](CC(=O)O)NC(=O)[C@H](CCC(N)=O)NC(=O)[C@H](Cc2c[nH]c3ccccc23)NC1=O` [Compound 11] (Ac-[Sar]CIWQDWGEHRCT-NH2; disulfide 2-12), for which the half-maximal inhibitory concentration (IC50) is less than 100 nM.

On to `CC[C@H](C)[C@@H]1NC(=O)[C@@H](NC(=O)CN(C)C(=O)[C@H](CCC(=O)O)NC(=O)CNC(C)=O)CSSC[C@@H](C(=O)N[C@H](C(=O)N[C@@H](CCC(=O)O)C(=O)N[C@@H](C)C(N)=O)[C@@H](C)O)NC(=O)[C@H](CCCNC(=N)N)NC(=O)[C@H](Cc2c[nH]cn2)NC(=O)[C@H](CCC(=O)O)NC(=O)CNC(=O)[C@H](Cc2c[nH]c3ccccc23)NC(=O)[C@H](CC(=O)O)NC(=O)[C@H](CCC(N)=O)NC(=O)[C@H](Cc2cn(C)c3ccccc23)NC1=O` [Compound 88] (Ac-GE[Sar]CI[Trp(1-Me)]QDWGEHRCTEA-NH2; disulfide 4-14), for which the IC50 was less than 100 nM.

Regarding `CC[C@H](C)[C@@H]1NC(=O)[C@@H](NC(=O)[C@H](Cc2ccccc2)NC(=O)[C@H](CCC(=O)O)NC(=O)[C@H](CO)NC(C)=O)CSSC[C@@H](C(=O)N(C)CC(=O)N[C@@H](CCC(=O)O)C(=O)NCC(=O)N[C@@H](CCC(=O)O)C(=O)NCCOCCOCC(=O)NCCOCCOCC(=O)N[C@@H](CCCCNC(=O)CC[C@H](NC(=O)CNC(=O)CC[C@H](NC(=O)CCCCCCCCCCCCCCCCC(=O)O)C(=O)O)C(=O)O)C(N)=O)NC(=O)[C@H](CCCNC(=N)N)NC(=O)[C@H](Cc2c[nH]cn2)NC(=O)[C@H](CCC(=O)O)NC(=O)CNC(=O)[C@H](Cc2c[nH]c3ccccc23)NC(=O)[C@H](CCC(=O)O)NC(=O)[C@H](CCC(N)=O)NC(=O)[C@H](Cc2cn(C)c3ccccc23)NC1=O` [Compound 124] (Ac-SEFCI[Trp(1-Me)]QEWGEHRC[Sar]EGE[AEEA][AEEA]K([γGlu-Gly-γGlu-C18 diacid])-NH2; disulfide 4-14), the IC50 was less than 100 nM.

On to `CC[C@H](C)[C@H](NC(C)=O)C(=O)N[C@H]1CSSC[C@@H](C(=O)N[C@@H](CCC(=O)O)C(N)=O)NC(=O)[C@H](CCCNC(=N)N)NC(=O)[C@H](Cc2c[nH]cn2)NC(=O)[C@H](C)NC(=O)CNC(=O)[C@H](Cc2c[nH]c3ccccc23)NC(=O)[C@H](CC(=O)O)NC(=O)[C@H](CCC(N)=O)NC(=O)[C@H](Cc2c[nH]c3ccccc23)NC(=O)[C@H]([C@@H](C)CC)NC1=O` [Compound 12] (Ac-ICIWQDWGAHRCE-NH2; disulfide 2-12), for which the IC50 is less than 100 nM.

Regarding `CC[C@H](C)[C@@H]1NC(=O)[C@@H](NC(=O)[C@H](Cc2ccc(O)cc2)NC(=O)[C@H](CCC(=O)O)NC(=O)[C@H](CO)NC(C)=O)CSSC[C@@H](C(=O)N(C)CC(=O)N[C@@H](CCC(=O)O)C(=O)N[C@@H](CCCCN)C(=O)N[C@@H](CCC(=O)N[C@@H](C)C(=O)N[C@@H](CCCCNC(=O)COCCOCCNC(=O)CC[C@H](NC(=O)COCCOCCNC(=O)CNC(=O)CC[C@H](NC(=O)CCCCCCCCCCCCCCCCC(=O)O)C(=O)O)C(=O)O)C(N)=O)C(=O)O)NC(=O)[C@H](CCCNC(=N)N)NC(=O)[C@H](Cc2c[nH]cn2)NC(=O)[C@H](CCC(=O)O)NC(=O)CN(C)C(=O)[C@H](Cc2c[nH]c3ccccc23)NC(=O)[C@H](CCC(=O)O)NC(=O)[C@H](CCC(N)=O)NC(=O)[C@H](Cc2cn(C)c3ccccc23)NC1=O` [Compound 121, Ac-SEYC(1)I[1-Me-Trp]QEW[Sar]EHRC(1)[Sar]EK[γGlu]A-K([17-carboxy-heptadecanoyl][γGlu]G[Peg3][γGlu][Peg3])-NH2] (Ac-SEYCI[Trp(1-Me)]QEW[Sar]EHRC[Sar]EK[γGlu]AK([AEEA-γGlu-AEEA-Gly-γGlu-C18 diacid])-NH2; disulfide 4-14), the IC50 was less than 250 nM.

Consider `CC[C@H](C)[C@@H]1NC(=O)[C@@H](NC(=O)[C@H](Cc2ccccc2)NC(=O)[C@H](CCC(=O)O)NC(=O)[C@H](CO)NC(C)=O)CSSC[C@@H](C(=O)N(C)CC(=O)N[C@@H](CCC(=O)O)C(=O)NCC(=O)N[C@@H](CCC(=O)O)C(=O)NCCOCCOCC(=O)NCCOCCOCC(=O)N[C@@H](CCCCNC(=O)CC[C@H](NC(=O)CNC(=O)CC[C@H](NC(=O)CCCCCCCCCCCCCCCCCCC(=O)O)C(=O)O)C(=O)O)C(N)=O)NC(=O)[C@H](CCCNC(=N)N)NC(=O)[C@H](Cc2c[nH]cn2)NC(=O)[C@H](CCC(=O)O)NC(=O)CNC(=O)[C@H](Cc2c[nH]c3ccccc23)NC(=O)[C@H](CC(=O)O)NC(=O)[C@H](CCC(N)=O)NC(=O)[C@H](Cc2cn(C)c3ccccc23)NC1=O` [Compound 128] (Ac-SEFCI[Trp(1-Me)]QDWGEHRC[Sar]EGE[AEEA][AEEA]K([γGlu-Gly-γGlu-C20 diacid])-NH2; disulfide 4-14), for which the IC50 was less than 100 nM.

Consider `CC[C@H](C)[C@H](NC(C)=O)C(=O)N[C@H]1CSSC[C@@H](C(=O)N[C@H](C(=O)NCC(=O)N[C@@H](C)C(=O)N[C@@H](CCC(=O)O)C(=O)N[C@@H](CO)C(N)=O)[C@@H](C)O)NC(=O)[C@H](CCCNC(=N)N)NC(=O)[C@H](Cc2c[nH]cn2)NC(=O)[C@H](C)NC(=O)CNC(=O)[C@H](Cc2c[nH]c3ccccc23)NC(=O)[C@H](CC(=O)O)NC(=O)[C@H](CCC(N)=O)NC(=O)[C@H](Cc2c[nH]c3ccccc23)NC(=O)[C@H]([C@@H](C)CC)NC1=O` [Compound 47] (Ac-ICIWQDWGAHRCTGAES-NH2; disulfide 2-12), for which the IC50 is less than 100 nM.

Consider `CC[C@H](C)[C@H](NC(C)=O)C(=O)N[C@H]1CSSC[C@@H](C(=O)N[C@H](C(N)=O)[C@@H](C)O)NC(=O)[C@H](CCCNC(=N)N)NC(=O)[C@H](Cc2c[nH]cn2)NC(=O)[C@H](CCC(=O)O)NC(=O)CNC(=O)[C@H](Cc2c[nH]c3ccccc23)NC(=O)[C@H](CCC(=O)O)NC(=O)[C@H](CCC(N)=O)NC(=O)[C@H](Cc2c[nH]c3ccccc23)NC(=O)[C@H]([C@@H](C)CC)NC1=O` [Compound 16] (Ac-ICIWQEWGEHRCT-NH2; disulfide 2-12), for which the IC50 is less than 100 nM.

Turning to `CC[C@H](C)[C@@H]1NC(=O)[C@@H](NC(=O)[C@H](Cc2ccccc2)NC(C)=O)CSSC[C@@H](C(=O)N[C@H](C(=O)NCC(=O)N[C@@H](C)C(=O)N[C@@H](CCC(=O)O)C(N)=O)[C@@H](C)O)NC(=O)[C@H](CCCNC(=N)N)NC(=O)[C@H](Cc2c[nH]cn2)NC(=O)[C@H](CCC(=O)O)NC(=O)CNC(=O)[C@H](Cc2c[nH]c3ccccc23)NC(=O)[C@H](CC(=O)O)NC(=O)[C@H](CCC(N)=O)NC(=O)[C@H](Cc2c[nH]c3ccccc23)NC1=O` [Compound 43] (Ac-FCIWQDWGEHRCTGAE-NH2; disulfide 2-12), the IC50 was less than 100 nM.

Regarding `CC[C@H](C)[C@H](NC(=O)[C@H](C)NC(=O)[C@H](CO)NC(=O)CNC(=O)[C@H](CCC(=O)O)NC(C)=O)C(=O)N[C@H]1CSSC[C@@H](C(=O)N[C@H](C(N)=O)[C@@H](C)O)NC(=O)[C@H](CCCNC(=N)N)NC(=O)[C@H](Cc2c[nH]cn2)NC(=O)[C@H](CCC(=O)O)NC(=O)CNC(=O)[C@H](Cc2c[nH]c3ccccc23)NC(=O)[C@H](CC(=O)O)NC(=O)[C@H](CCC(N)=O)NC(=O)[C@H](Cc2c[nH]c3ccccc23)NC(=O)[C@H]([C@@H](C)CC)NC1=O` [Compound 29] (Ac-EGSAICIWQDWGEHRCT-NH2; disulfide 6-16), the IC50 is less than 100 nM.

Staying with this assay, now noted: human serum, sensitized sheep red blood cells; Table 4, valine 3 vs isoleucine 3 pairs; read-out: CP hemolysis IC50.
With `CC[C@H](C)[C@H](NC(C)=O)C(=O)N[C@H]1CSSC[C@@H](C(=O)N[C@H](C(=O)N[C@@H](CCC(=O)O)C(=O)NCC(=O)N[C@@H](CCC(=O)O)C(N)=O)[C@@H](C)O)NC(=O)[C@H](CCCNC(=N)N)NC(=O)[C@H](Cc2c[nH]cn2)NC(=O)[C@H](CCC(=O)O)NC(=O)CNC(=O)[C@H](Cc2c[nH]c3ccccc23)NC(=O)[C@H](CC(=O)O)NC(=O)[C@H](CCC(N)=O)NC(=O)[C@H](Cc2c[nH]c3ccccc23)NC(=O)[C@H](C(C)C)NC1=O` [J, reference compound] (Ac-ICVWQDWGEHRCTEGE-NH2; disulfide 2-12), the IC50 worked out at 240 nM.

On to `CC[C@H](C)[C@H](NC(C)=O)C(=O)N[C@H]1CSSC[C@@H](C(=O)N[C@H](C(=O)NCC(=O)N[C@@H](C)C(=O)N[C@@H](CCC(=O)O)C(=O)N[C@@H](CO)C(N)=O)[C@@H](C)O)NC(=O)[C@H](CCCNC(=N)N)NC(=O)[C@H](Cc2c[nH]cn2)NC(=O)[C@H](CCC(=O)O)NC(=O)CNC(=O)[C@H](Cc2c[nH]c3ccccc23)NC(=O)[C@H](CC(=O)O)NC(=O)[C@H](CCC(N)=O)NC(=O)[C@H](Cc2c[nH]c3ccccc23)NC(=O)[C@H](C(C)C)NC1=O` [D, reference compound] (Ac-ICVWQDWGEHRCTGAES-NH2; disulfide 2-12), for which the IC50 came out at 210 nM.
